From EP4818178A1, “PREPARATION AND USE OF PYRIMIDOTHIOPYRANONE KRAS MUTANT PROTEIN INHIBITOR” (Ya Therapeutics Inc, priority 2024, dated 2025)

What was measured:
[1] = molecular target: KRasG12D (Homo sapiens, UniProt P01116, G12D); test: KRAS inhibitory activity test, TR-FRET (inhibition of binding of KRasG12D to GTP, SOS/GTP nucleotide exchange); assay type: biochemical; details: read-out: IC50 values of the compounds for inhibiting KRAS enzymes, G12D
Method in brief: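 KRasG12D preloaded with Bodipy-GDP plus Tb-streptavidin (3 nM Kras/0.5 nM Tb-SA/30 nM Bodipy-GDP) incubated 1 h at rt with compound (10-point 3-fold series). SOS/GTP mixture then added for 1 h at rt. TR-FRET signal read; IC50 calculated.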

[2] = tested on: p-ERK in AsPC-1 (G12D) cells; test: Cellular p-ERK inhibition assay (HTRF); assay type: cell-based; details: Homo sapiens, ASPC1, 1 hour with compound, read-out: IC50 (nM) of the compounds on the inhibition of p-ERK in tumor cells, AsPC-1
Method: (§1) Cells were seeded in clear 96-well cell culture plates, with 80 µL of cell suspension per well, containing 8000 cells per well. The plates were incubated overnight at 37°C using a CO2 incubator. 2 µL of the compound was added to 78 µL of cell culture medium, mixed well, and then 20 µL of the compound solution was added to the corresponding wells of the cell culture plate. The plates were returned to the CO2 incubator for another hour. After incubation, the cell supernatant was discarded, and 50 µL of the […] was added to the cell culture plate. Add 1X cell lysis buffer to each well and incubate at room temperature with shaking for 30 minutes. Dilute Phospho-ERK1/2 Eu Cryptate antibody and Phospho-ERK1/2 d2 antibody 20-fold using detection buffer. Transfer 16 µL of cell lysis supernatant to each well in a new 384 white microplate, then add 2 µL of Phospho-ERK1/2 Eu Cryptate antibody diluent and 2 µL of Phospho-ERK1/2 d2 antibody diluent. Incubate at room temperature for at least 4 hours. After incubation, read the HTRF excitation (320 nm) and emission (615 nm, 665 nm) using a multilabel analyzer. Calculate the IC50 of the analyte. "++++" indicates IC50≤ 10 nM; "+++" indicates 10 nM < IC50≤ 100 nM; "++" indicates 100 nM < IC50≤ 2000 nM; "+" indicates 2000 nM < IC50. Table 2. IC50 (nM) of the compounds on the inhibition of p-ERK in tumor cells.

[3] = tested on: p-ERK in HCT116 (G13D) cells; test: Cellular p-ERK inhibition assay (HTRF); assay type: cell-based; details: Homo sapiens, HCT-116, 1 hour with compound, read-out: IC50 (nM) of the compounds on the inhibition of p-ERK in tumor cells, HCT11 6
Method: as §1

[4] = tested on: p-ERK in PSN-1 (G12R) cells; test: Cellular p-ERK inhibition assay (HTRF); assay type: cell-based; details: Homo sapiens, PSN1, 1 hour with compound, read-out: IC50 (nM) of the compounds on the inhibition of p-ERK in tumor cells, PSN-1
Method: as §1

Sequence of KRasG12D (P01116 1-188 isoform P01116-2 G12D): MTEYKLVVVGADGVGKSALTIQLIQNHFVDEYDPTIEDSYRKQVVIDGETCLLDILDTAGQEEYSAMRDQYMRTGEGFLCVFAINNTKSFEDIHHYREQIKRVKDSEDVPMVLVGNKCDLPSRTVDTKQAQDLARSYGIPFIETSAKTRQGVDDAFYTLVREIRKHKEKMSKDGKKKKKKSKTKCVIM

| SMILES | IC50 [1] [nM] | IC50 [2] [nM] | IC50 [3] [nM] | IC50 [4] [nM] |
| --- | --- | --- | --- | --- |
| Cc1cc(N)nc(C2Cc3nc(OC[C@@]45CCCN4C[C@H](F)C5)nc(N4CCC[C@@](C)(O)C4)c3CS2(=O)=O)c1C(F)(F)F (stereo partly drawn) [Compound 7, 7-(6-amino-4-methyl-3-(trifluoromethyl)pyridin-2-yl)-2-(((2R,7AS)-2-fluorotetrahydro-1H-pyrrolazin-7a(5H)-yl)methoxy)-4-((R)-3-hydroxy-3-methylpiperidin-1-yl)-7,8-d ihydro-5H-thiopyrano[4,3-d]pyrimidine 6,6-dioxide] | ≤ 10 | ≤ 10 | ≤ 10 | 100 to 2000 |
| Cc1cc(O)nc(C2Cc3nc(OC[C@@]45CCCN4C[C@H](F)C5)nc(N4CCC[C@@](C)(O)C4)c3CS2(=O)=O)c1C(F)(F)F (stereo partly drawn) [Compound 8, 2-(((2R,7AS)-2-fluorotetrahydro-1H-pyrrolazin-7a(5H)-yl)methoxy)-4-((R)-3-hydroxy-3-methylpiperidin-1-yl)-7-(6-hydroxy-4-methyl-3-(trifluoromethyl)pyridin-2-yl)-7,8-dihydro-5H-thiopyrano[4,3-d]pyrimidine-6,6-dioxide] | ≤ 10 | ≤ 10 | ≤ 10 | 100 to 2000 |
| Cc1cc(O)c(F)c(C2Cc3nc(OC[C@@]45CCCN4C[C@H](F)C5)nc(N4C[C@H]5CC[C@@H](C4)N5)c3CS2(=O)=O)c1C(F)(F)F (stereo partly drawn) [Compound 2, 4-((1R,5S)-3,8-diazabicyclo[3.2.1]octane-3-yl)-7-(2-fluoro-3-hydroxy-5-methyl-6-(trifluoromethyl)phenyl)-2-(((2R,7AS)-2-fluorotetrahydro-1H-pyrrolazin-7a(5H)-yl)methoxy)-7,8-dihydro-5H-thiopyrano[4,3-d]pyrimidine-6,6-dioxide] | ≤ 10 | ≤ 10 | ≤ 10 | 100 to 2000 |
| Cc1cc(O)nc(C2Cc3nc(OC[C@@]45CCCN4C[C@H](F)C5)nc(N4C[C@H]5CC[C@@H](C4)N5)c3CS2(=O)=O)c1C(F)(F)F (stereo partly drawn) [Compound 4, 4-((1R,5S)-3,8-diazabicyclo[3.2.1]octane-3-yl)-2-(((2R,7AS)-2-fluorotetrahydro-1H-pyrrolazin-7a(5H)-yl)methoxy)-7-(6-hydroxy-4-methyl-3-(trifluoromethyl)pyridin-2-yl)-7,8-dihydro-5H-thiopyrano[4,3-d]pyrimidine-6,6-dioxide] | ≤ 10 | ≤ 10 | ≤ 10 | 100 to 2000 |
| Cc1cc(N)nc(C2Cc3nc(OC[C@@]45CCCN4C[C@H](F)C5)nc(N4C[C@H]5CC[C@@H](C4)N5)c3CS2(=O)=O)c1C(F)(F)F (stereo partly drawn) [Compound 3, 7-(6-amino-4-methyl-3-(trifluoromethyl)pyridin-2-yl)-4-((1R,5S)-3,8-diazabicyclo[3. 2.1]octane-3-yl)-2-(((2R,7AS)-2-fluorotetrahydro-1H-pyrrolazin-7a(5H)-yl)methoxy) -7,8-dihydro-5H-thiopyrano[4,3-d]pyrimidine-6,6-dioxide] | ≤ 10 | ≤ 10 | ≤ 10 | 100 to 2000 |
